Measurements reported in patent publication US12545900B2, “CGAS/DNCV-like nucleotidyltransferases and uses thereof” (Dana-Farber Cancer Institute, Inc., priority 2018, dated 2026).
Entries after “also recorded” stand apart in the source; their conditions may differ.

Experiments:
Mus musculus STING = molecular target: T1, Mus musculus STING (Mus musculus, UniProt Q3TBT3); experiment: Gel shift assay, radiolabeled nucleotide binding to STING (native PAGE); conditions: radiolabeled nucleotide, 0, 4, 20, 100 μM protein
T1 construct: 6xHis-SUMO2 (N, cleaved yes); made in house; host or cells: E. coli BL21 CodonPlus (DE3)-RIL
T1 sequence (Q3TBT3 138-378 limits assumed): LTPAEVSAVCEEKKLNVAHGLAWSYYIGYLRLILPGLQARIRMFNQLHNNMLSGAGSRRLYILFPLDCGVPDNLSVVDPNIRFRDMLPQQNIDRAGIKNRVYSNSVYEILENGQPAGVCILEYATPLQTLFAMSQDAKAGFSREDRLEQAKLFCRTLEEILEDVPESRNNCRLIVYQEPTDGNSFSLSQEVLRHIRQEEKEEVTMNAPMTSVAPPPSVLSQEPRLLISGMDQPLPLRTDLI
Description: (§1) Briefly, recombinant Mus musculus STING or RECON, at 4, 20, or 100 μM was incubated with radiolabeled nucleotide (≤1 μM final concentration) in gel shift buffer for final conditions of 50 mM Tris pH 7.5, 60 mM KCl, 5 mM Mg (OAc) 2, and 1 mM DTT. Experiments were prepared by combining 1 μL of [α-^32P] labeled nucleotide, 2 uL 5x gel shift buffer, 5 μL of nuclease free water, and started by addition of 2 μL of recombinant protein in storage buffer.
(§2) After 30 min of equilibration, bound and free nucleotide were separated by 6% native PAGE in 0.5x TBE buffer. Gels were dried, and exposed to phosphorscreen prior to detection by Typhoon Trio Variable Mode Imager system (GE Healthcare). Gel shifts were quantified with ImageQuant® 5.2 and the % bound nucleotide was calculated as a proportion of total bound and free nucleotide for each lane, after subtraction of background signal. Gel shift data is representative of ≥2 independent experiments.

RECON [1] = molecular target: T2, RECON (Mus musculus, UniProt Q8VC28); experiment: RECON enzyme assay (oxidation of NADPH cosubstrate); format: biochemical; conditions: nucleotide 50-0.05 μM
T2 construct: 6xHis-SUMO2 (N, cleaved yes); made in house; host or cells: E. coli BL21 CodonPlus (DE3)-RIL
T2 sequence (Q8VC28 1-323): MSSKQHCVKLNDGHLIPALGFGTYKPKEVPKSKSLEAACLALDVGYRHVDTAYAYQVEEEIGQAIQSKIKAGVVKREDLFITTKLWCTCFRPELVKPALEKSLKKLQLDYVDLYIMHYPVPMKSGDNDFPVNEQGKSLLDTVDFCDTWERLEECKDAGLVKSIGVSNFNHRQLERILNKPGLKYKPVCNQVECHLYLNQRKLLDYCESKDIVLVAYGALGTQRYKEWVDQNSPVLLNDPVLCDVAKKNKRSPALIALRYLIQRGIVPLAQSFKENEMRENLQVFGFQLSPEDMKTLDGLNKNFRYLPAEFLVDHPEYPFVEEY
Description: Activity assays were performed as previously described (McFarland et al. (2017) Immunity 46:433-445). Briefly, a 2-fold dilution series of nucleotide from 50-0.05 μM was incubated in 1×PBS with 200 μM NADPH (cosubstrate) and 25 μM 9,10-Phenanthrenequinone (substrate). The reactions were started with the addition of RECON to a final concentration of 0.5 μM and absorbance at 340 nm was monitored at 20 s intervals for 20 min. Slope of each reaction in the linear range (20-250 s) was used to calculate activity (Linear regression/straight Line analysis, Prism 7.0c). Values were normalized to reactions with zero nucleotide added, which defined 100% activity.

RECON [2] = molecular target: T2, RECON; experiment: Gel shift assay, radiolabeled nucleotide binding to RECON (native PAGE); conditions: radiolabeled nucleotide, 0, 4, 20, 100 μM protein
Description: as §1, §2

[3] = tested on: interferon-β reporter in HEK293T cells expressing Mus musculus STING; experiment: Cellular assay for interferon-β induction (in-cell STING reporter assay); conditions: HEK293T cells transfected with plasmid overexpressing the synthesizing enzyme
CapE = molecular target: T3, CapE (Escherichia coli, UniProt Q6XGD4); experiment: Phospholipase assay (EnzChek Phospholipase A1), CapE; format: biochemical, E. coli; conditions: 0.1, 1, and 10-fold molar ratios of nucleotide to phospholipase
T3 construct: made in house; host or cells: E. coli BL21 CodonPlus (DE3)-RIL
Description: Patatin-like lipases were assayed as previously described (Gaspar & Machner (2014) Proc. Natl. Acad. Sci. U.S.A. 111:4560-4565). Briefly, CapV and CapE were produced recombinantly and catalytic activity was measured using the EnzChek® Phospholipase A1 Assay Kit (Invitrogen) according to the manufacturer's instructions. […] Assays were monitored fluorometrically Ex=460 nm/Em=515 nm, for 60 min at ˜90 s intervals at room temperature using a Biotek Synergy plate reader. Slope of each reaction in the linear range was used to calculate activity (Linear regression/straight line analysis, Prism 7.0c). A PLA1 standard curve from 20-0.02 U was used to interpolate phospholipase activity. Emission was monitored at a gain of 100 and/or 50 in order to extend the linear range of the assay.

T3 sequence (Q6XGD4 whole entry): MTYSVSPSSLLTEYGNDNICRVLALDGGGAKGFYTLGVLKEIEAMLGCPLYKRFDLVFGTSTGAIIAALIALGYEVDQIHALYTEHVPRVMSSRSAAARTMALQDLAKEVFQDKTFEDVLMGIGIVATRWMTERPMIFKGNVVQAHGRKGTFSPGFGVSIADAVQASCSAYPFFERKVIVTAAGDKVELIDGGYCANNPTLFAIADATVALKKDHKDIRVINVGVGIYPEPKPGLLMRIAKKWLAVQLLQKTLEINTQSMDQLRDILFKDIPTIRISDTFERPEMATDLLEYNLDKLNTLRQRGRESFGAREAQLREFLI

| SMILES | recognition/binding of nucleotide by STING (Mus musculus STING) | inhibition of RECON enzymatic activity (RECON [1]) | recognition/binding of nucleotide by RECON (RECON [2]) | activation of STING-dependent type I interferon (IFN-β reporter) [3] | activation of CapE phospholipase activity (CapE) |
| --- | --- | --- | --- | --- | --- |
| Nc1nc2c(ncn2[C@@H]2O[C@@H]3COP(=O)(O)O[C@H]4[C@@H](O)[C@H](n5cnc6c(N)ncnc65)O[C@@H]4COP(=O)(O)O[C@H]4[C@@H](O)[C@H](n5cnc6c(N)ncnc65)O[C@@H]4COP(=O)(O)O[C@H]3[C@H]2O)c(=O)[nH]1 [cAAG, 3′3′3′ tricyclic adenosine monophosphate-adenosine monophosphate-guanosine monophosphate] | escaped STING recognition | inhibition of RECON enzymatic activity | detected by RECON | – | – |
| Nc1ncnc2c1ncn2C1OC2COP(=O)(O)OC3C(COP(=O)(O)OC2C1O)OC(n1ccc(=O)[nH]c1=O)C3O (stereo not shown) [cUMP-AMP, 3′3′ cyclic uridine monophosphate-adenosine monophosphate] | – | inhibited RECON function, albeit with a reduced potency compared to the previously reported inhibition by c-di-AMP and 3′3′ cGAMP | bound to cUMP-AMP; also recorded: detected by RECON | failed to activate STING-dependent type I interferon in cells | CapE as a direct cUMP-AMP receptor |
